# US20050048128A1, “Process for producing collagen production enhancers and use thereof” (priority 2001, published 2005)
# Experiments:
# Assay type in all cases: cell-based
# [1] = system: new-born hamster fibroblasts; experiment: Influence of royal jelly on the collagen production by L-ascorbic acid, significant difference test (Experiment 2)
# Experimental: Using the assay system for the collagen production level used in Experiment 1, it was studied the influence of royal jellies on the collagen production by L-ascorbic acids: New-born hamster fibroblasts, prepared similarly as the method in Experiment 1, were seeded in 6-well plates and cultured for seven days. […] In this experiment, three wells were used for each concentration. The results were evaluated whether there existed a significant difference between the count in a control system and those in the test systems with different concentrations of heated or unheated royal jelly, based on the count for the control system with no royal jelly that was detected by a liquid scintillation counter, as a control.
# [2] = system: new-born hamster fibroblasts; experiment: Collagen production by new-born hamster fibroblasts, [2,3-3H] proline taken into collagen (Experiment 1); conditions: for Relative amount of collagen production: no addition = 100, relative value ± SD
# Experimental: According to conventional manner, the dorsum skin of a new-born hamster was cut and detached, and fibroblasts were isolated from the detached skin. The preparation method is outlined below: To detach the epidermis from the dermis, the debris was placed and allowed to stand at 4° C. overnight in Eagle's minimum essential medium, commercialized by Nippon Suisan Kaisha, Ltd., Tokyo, Japan, containing 0.03 mM Ca^2+, in which 500 units/ml of a dispase commercialized by Godo Shusei Co., Ltd., Tokyo, Japan, was dissolved. The detached dermis was kept at 37° C. for one hour in Dulbecco minimum essential medium (abbreviated as “D-MEM”, hereinafter), commercialized by Nippon Suisan Kaisha, Ltd., Tokyo, Japan, in which 0.25% (v/v) of a collagenase commercialized by Amano Enzyme, Aichi, Japan, was dissolved. Thereafter, the resulting cell debris of the dermis were pipetted into a cell suspension with singly dispersed cells of new-born hamster fibroblasts, followed by collecting the cells by centrifugation. The cells were suspended in phosphate-buffered saline and allowed to stand for 30 min, followed by centrifugally collecting the resulting supernatant with fibroblasts and re-suspending the cells in D-MEM supplemented with 10% (v/v) of a fetal bovine serum (abbreviated as “FCS”, hereinafter) commercialized by GIBCO Bethesda Research Laboratories, Bethesda, Md., USA, into a cell suspension for use in the following assay for collagen production level.
# The following cells were cultured in an incubator with 5% (v/v) CO2 at 37° C. Three milliliter aliquots of the cell suspension of new-born hamster fibroblasts, prepared in the above 3, were seeded in 6-well plates to give a cell density of 4×10^5 cells/well and cultured for seven days. To D-MEM supplemented with 10% (v/v) FCS was added and dissolved therein L-ascorbic acid to give a concentration of 0.0, 0.1, 0.2, 0.5, 1.0, 2.0, 5.0, 10.0, 20.0, 50.0, 100.0, or 200.0 μg/ml. Similarly as above, either a heated royal jelly or an unheated royal jelly was added to and dissolved in D-MEM supplemented with 10% (v/v) FCS to give a concentration of 0.0, 0.1, 0.2, 0.5, 1.0, 2.0, 5.0, 10.0, 20.0, 50.0, 100.0, 200.0, or 500.0 μg/ml. Five milliliter aliquot of any one of the above media supplemented with L-ascorbic acid or the heated or unheated royal jelly was added to each well of the plates, which had been removed off the culture supenatants of fibroblast cultures, followed by culturing the cells for three days. Thereafter, the supernatant in each well was replaced with five milliliters of a fresh medium supplemented with the same concentration of L-ascorbic acid or the heated or unheated royal jelly as mentioned-above, and the cells were sequentially cultured for three days, replaced with one milliliter of a fresh medium having the same concentration of L-ascorbic acid or the heated or unheated royal jelly as mentioned-above, cultured for three hours, admixed with [2,3-^3H] proline (40 Ci/mmol) commercialized by Amersham Corp., Div. Amersham International, Ill., USA, which had been dissolved in D-MEM to give a concentration of 3 μCi/well, and further cultured overnight. All the culture media, including those supplemented with L-ascorbic acid or the heated or unheated royal jelly, used in this experiment, were filtered with a 0.22 μm filter before use.
# In the above 4, after the fibroblasts of new-born hamster were cultured in the presence of [2,3-^3H] proline, collagen was extracted from the cells in a usual manner and quantified for [2,3-^3H] proline taken thereinto. The quantitation was carried out by the method disclosed by Seong-Jin Kim et al. in Dermatologic Surgery, Vol. 24, pp. 1,054-1,058 (1998). […]
# [3] = system: new-born hamster fibroblasts; experiment: Collagen production by L-ascorbic acid 2-glucoside or sodium L-ascorbate with or without royal jelly, seven-day culture (Experiment 3); conditions: 1 μg/ml L-ascorbic acid, three days, medium replaced with fresh one, three further days; data omitted
# [4] = system: new-born hamster fibroblasts; experiment: as above; conditions: for Collagen production level: no additions = 100, relative value ± SD
# Experimental: Royal jelly was dissolved in D-MEM medium containing 10% (v/v) FCS to give a concentration of 200 μg/ml, and then L-ascorbic acid 2-glucoside was dissolved in the resulting medium to give a concentration of 0.2, 0.5 or 1.0 μg/ml in terms of the weight of L-ascorbic acid. As controls, L-ascorbic acid 2-glucoside was dissolved in D-MEM medium, supplemented with 10% (v/v) FCS but with no royal jelly, to give a concentration of 0.2, 0.5, or 1.0 μg/ml in terms of the weight of L-ascorbic acid. Similarly as in Experiment 1, new-born hamster fibroblasts were cultured for seven days in 6-well plates and further cultured for seven days after the supernatant in each plate was replaced with 5 ml of any of the above media, which dissolved the above-identified L-ascorbic acid 2-glucoside and royal jelly, or those prepared for use as controls. Thereafter, the collagen production level in each well was determined by the same method as in Experiment 1. As a negative control, a medium, supplemented with 200 μg/ml of royal jelly and 1 μg/ml of sodium L-ascorbate in terms of the weight of L-ascorbic acid, was added to the fibroblasts similarly as above, and the cells were cultured for seven days.
# The fibroblasts with no addition of L-ascorbic acid 2-glucoside gave a lower collagen production level similarly as that of the control in Experiment 1, independently of the addition of royal jellies. When ascorbic acid 2-glucoside was added to give a concentration of 0.2 μg/ml or more, the collagen production level was enhanced as compared with the system with no L-ascorbic acid 2-glucoside, and the level was more enhanced by the addition of royal jellies.
# [5] = system: new-born hamster fibroblasts; experiment: TGF-β production by fibroblasts, TGF-β1 Emax ImmunoAssay System (Experiment 4); conditions: 24 hours, no additions = 100, relative value ± SD
# Experimental: To study the mechanism of the enhancement of collagen production by royal jellies and/or L-ascorbic acids, the influence of royal jelly and/or L-ascorbic acid 2-glucoside, which had been reported to enhance the production of mRNA for collagen in fibroblasts, on the production of TGF-β was examined by the following method: • (1) Assay for TGF-β: • TGF-β was assayed on TGF-β1 Emax ImmunoAssay System, commercialized by Promega Corporation, Tokyo, Japan. • (2) Assay for TGF-β produced by fibroblasts in the presence of royal jelly and/or L-ascorbic acid 2-glucoside: • TGF-β was assayed by inoculating 1×10^4 cells/well of new-born hamster fibroblasts, prepared by the method similarly as in Experiment 1, to 96-well microplates, commercialized by Nippon Becton. […]
# [6] = L-ascorbic acid 2-glucoside 0.2 μg/ml (as L-ascorbic acid) with royal jelly 200 μg/ml
# [7] = L-ascorbic acid 2-glucoside 0.2 μg/ml (as L-ascorbic acid), no royal jelly
molecule,measurement,setting,value
"O=C1O[C@H]([C@@H](O)CO)C([O-])=C1O.[Na+] [L-ascorbic acid, Sodium L-ascorbate]",Lowest concentration of L-ascorbic acid exerting the collagen-production action in combination with royal jelly,[1],0.2 µg/mL
same,Relative amount of collagen production,[2]; L-ascorbic acid 0.1 μg/ml,95 ± 13
same,Relative amount of collagen production,[2]; L-ascorbic acid 0.2 μg/ml,118 ± 26
same,Relative amount of collagen production,[2]; L-ascorbic acid 0.5 μg/ml,210 ± 33
same,Relative amount of collagen production,[2]; L-ascorbic acid 1.0 μg/ml,482 ± 89
same,Relative amount of collagen production,[2]; L-ascorbic acid 2.0 μg/ml,1497 ± 155
same,Relative amount of collagen production,[2]; L-ascorbic acid 5.0 μg/ml,1755 ± 151
same,Relative amount of collagen production,[2]; L-ascorbic acid 10.0 μg/ml,2089 ± 160
same,Relative amount of collagen production,[2]; L-ascorbic acid 20.0 μg/ml,2456 ± 186
same,Relative amount of collagen production,[2]; L-ascorbic acid 50.0 μg/ml,2841 ± 341
same,Relative amount of collagen production,[2]; L-ascorbic acid 100.0 μg/ml,2956 ± 500
same,Relative amount of collagen production,[2]; L-ascorbic acid 200.0 μg/ml,2863 ± 456
same,Minimum effective amount of L-ascorbic acid for producing collagen,[2]; sole use,0.5 µg/mL
same,Concentration at which the level of collagen production reached a plateau level,"[2]; sole use, no significant increase above",≥ 50 µg/mL
Sodium L-ascorbate [L-ascorbic acid],Collagen production with medium replacement,[3],enhanced level of collagen production
same,"Enhancement of collagen production, negative control","[4]; 1 μg/ml sodium L-ascorbate (as L-ascorbic acid) with 200 μg/ml royal jelly, seven days, medium not replaced",no enhancement of collagen production
O=C1O[C@H]([C@@H](O)CO)C(O)=C1O[C@H]1O[C@H](CO)[C@@H](O)[C@H](O)[C@H]1O [L-ascorbic acid 2-glucoside],Collagen production level,[4]; [6],298 ± 30
same,Collagen production level,[4]; [7],219 ± 31
same,Collagen production level,[4]; L-ascorbic acid 2-glucoside 0.5 μg/ml (as L-ascorbic acid) with royal jelly 200 μg/ml,1440 ± 70
same,Collagen production level,"[4]; L-ascorbic acid 2-glucoside 0.5 μg/ml (as L-ascorbic acid), no royal jelly",527 ± 17
same,Collagen production level,[4]; L-ascorbic acid 2-glucoside 1.0 μg/ml (as L-ascorbic acid) with royal jelly 200 μg/ml,3168 ± 318
same,Collagen production level,"[4]; L-ascorbic acid 2-glucoside 1.0 μg/ml (as L-ascorbic acid), no royal jelly",2250 ± 436
same,Concentration of L-ascorbic acid 2-glucoside at which the collagen production level was enhanced,[4]; compared with the system with no L-ascorbic acid 2-glucoside,≥ 0.2 µg/mL
same,Stability dissolved in media,"[4]; culture medium, seven days, compared with L-ascorbic acid",advantageously more stable as compared with L-ascorbic acid
same,Production level of TGF-β,[5]; [6],132 ± 12
same,Production level of TGF-β,[5]; [7],111 ± 5
